Experimental data from US7019034B2, “Compositions and methods for reducing serum glucose and triglyceride levels in diabetic mammals” (Allergan, Inc., priority 2003, dated 2006).

How the values were obtained:
diabetic db/db mice [1] = assay: serum glucose in diabetic db/db mice, 7 days oral dosing; type: in vivo; conditions: for Glucose: 50 mg/kg once daily oral gavage, mean +/- SD
Description: (§1) Effects of RXR agonists on serum glucose and triglyceride were studied in diabetic db/db mice. […] Briefly, animals were dosed once daily by oral gavage using corn oil vehicle for a period of 7 consecutive days. Serum samples were collected on day 1 (first day of dosing) and day 7 at hour 0 (immediately prior to dosing) and hour 3 (approximately 3 hours after dosing). Serum glucose and triglyceride levels of these samples were measured as described in the reference manuals: Glucose/HK. Boehringer Mannheim Corporation, 9115 Hague Road, Indianapolis, Ind., USA and Triglycerides/GPO. Roche Diagnostics Corporation, 9115 Hague Road, Indianapolis, Ind., USA, expressly incorporated herein. Only those animals with glucose levels of higher than 300 mg/dl at 0 hour on day 1 were considered as diabetic and included in data analysis.
(§2) A measured amount of dosing solution was withdrawn into a metal feeding tube attached to a marked syringe. Animals were restrained by grasping of their back skin while the feeding tube was gently inserted into their mouth and into esophagus. A fixed amount of the dosing solution was displaced into the esophagus/stomach of the animal by pushing the plunger of the syringe. Serum samples were collected from the retro-orbital sinus while the animals were anesthetized. These samples were analyzed by using commercially available kits from Boehringer Manheim for their glucose levels and Roche Diagnostics for their triglyceride levels in a Boehringer Manheim Hatachi Clinical Chemistry Analyzer.
(§3) For glucose assay, an enzymatic reaction using hexokinase and glucose-6-phosphodehydrogenase to catalyze glucose to gluconate-6phosphate and NADPH was employed. The amount of NADPH formed during these reactions was equivalent to the amount of glucose in the serum and was measured with a spectrophotometer. For triglycerides, a series of enzymatic reactions which included lipase, glycerol kinase and glycerol phosphate oxidase to formed dihydroacetone phosphate and peroxidase. The peroxidase produced catalyzed a reaction between peroxide and 4-aminophenazone and 4-chlorophenol in a Trinder reaction to generate a color change. This color change was measured by a spectrophotometer and reflected the amount of triglyceride in the sample.

RXRα = biological target: T1, RXRα (Homo sapiens, UniProt P19793); assay: holoreceptor transactivation assay, RXRα; type: cell-based
T1 construct: expressed in transfected cells
T1 sequence (P19793 1-462): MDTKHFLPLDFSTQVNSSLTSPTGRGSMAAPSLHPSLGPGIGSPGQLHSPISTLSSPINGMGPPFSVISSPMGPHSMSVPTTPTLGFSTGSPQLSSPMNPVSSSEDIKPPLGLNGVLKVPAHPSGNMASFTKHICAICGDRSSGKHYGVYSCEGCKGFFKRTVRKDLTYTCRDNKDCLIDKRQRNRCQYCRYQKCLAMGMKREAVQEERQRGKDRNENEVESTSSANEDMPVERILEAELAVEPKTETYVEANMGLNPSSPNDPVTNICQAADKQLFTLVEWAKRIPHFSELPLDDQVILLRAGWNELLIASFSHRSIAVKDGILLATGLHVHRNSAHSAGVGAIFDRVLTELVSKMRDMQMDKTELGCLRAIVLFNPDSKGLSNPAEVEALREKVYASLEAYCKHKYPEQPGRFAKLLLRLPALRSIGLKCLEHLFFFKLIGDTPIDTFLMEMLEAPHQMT
From the text: A holoreceptor transactivation assay and a ligand binding assay which measure the antagonist/agonist like activity of the compounds of the invention, or their ability to bind to the several retinoid receptor subtypes, respectively, are described in published PCT Application No. WO WO93/11755 (particularly on pages 30–33 and 37–41) published on Jun. 24, 1993, the specification of which is also incorporated herein by reference. […] The results obtained in this assay are expressed in EC50 numbers, as they are also in the chimeric receptor transactivation assay. The results of the ligand binding assay are expressed in Ki numbers. (See Cheng et al. Biochemical Pharmacology Vol. 22 pp 3099–3108, expressly incorporated herein by reference.)
Particularly, the transactivation data pertaining to activation of the RAR receptors were obtained in the chimeric assay, and the transactivation data pertaining to the activation of RXR receptors were obtained in the holoreceptor assay.
In Table 1 NA stands for not active at all as an agonist. ND stands for not determined. The first row of numbers pertaining to each compound is the measured EC50 number. […] The third row of numbers pertaining to each compound is the binding Ki number.

diabetic db/db mice [2] = assay: serum triglycerides in diabetic db/db mice, 7 days oral dosing; type: in vivo; conditions: for Triglycerides: 50 mg/kg once daily oral gavage, mean +/- SD
Description: as §1, §2, §3

[3] = Day 1, 0 hr (immediately prior to dosing)

`CCOc1cc2c(cc1\C(CC)=C(F)/C=C/C(C)=C/C(=O)O)C(C)(C)CCC2(C)C` [Compound 2, (2E,4E,6E)-7-(3-Ethoxy-5,5,8,8-tetramethyl-5,6,7,8-tetrahydronaphthalen-2-yl)-6-fluoro-3-methylnona-2,4,6-trienoic acid] gave a Glucose (diabetic db/db mice [1]; [3]) of 529 ± 123 mg/dL, a Glucose (diabetic db/db mice [1]; Day 1, 3 hr) of 436 ± 127 mg/dL and a Glucose (diabetic db/db mice [1]; Day 7, 0 hr) of 414 ± 105 mg/dL. The Glucose (diabetic db/db mice [1]; Day 7, 3 hr) was 350 ± 140 mg/dL, the “effect on serum glucose in diabetic mouse (in words)” value (diabetic db/db mice [1]; mouse, in vivo) was “capable of lowering serum glucose” and the EC50 (RXRα; NA = not active at all as an agonist, read-out: RXR Trans. EC50 α) was 800 pM. For the same compound, the “RXR α efficacy in percentage as compared to the standard compound” value (RXRα; number in brackets) was 17%, the Triglycerides (diabetic db/db mice [2]; [3]) was 168 ± 74 mg/dL and the Triglycerides (diabetic db/db mice [2]; Day 1, 3 hr) was 142 ± 94 mg/dL. For the same compound, the Triglycerides (diabetic db/db mice [2]; Day 7, 0 hr) was 157 ± 106 mg/dL, the Triglycerides (diabetic db/db mice [2]; Day 7, 3 hr) was 95 ± 33 mg/dL and the “effect on serum triglyceride (in words)” value (diabetic db/db mice [2]; mouse, in vivo) was “does not affect”.
